We go through 19 compounds from patent publication US20090270381A1, “Non-steroidal progesterone receptor modulators” (priority 2007, published 2009).

The target of one experiment is T1, PR-B (Homo sapiens, UniProt P06401).
T1 construct: expressed in transfected cells
T1 sequence (P06401 1-933): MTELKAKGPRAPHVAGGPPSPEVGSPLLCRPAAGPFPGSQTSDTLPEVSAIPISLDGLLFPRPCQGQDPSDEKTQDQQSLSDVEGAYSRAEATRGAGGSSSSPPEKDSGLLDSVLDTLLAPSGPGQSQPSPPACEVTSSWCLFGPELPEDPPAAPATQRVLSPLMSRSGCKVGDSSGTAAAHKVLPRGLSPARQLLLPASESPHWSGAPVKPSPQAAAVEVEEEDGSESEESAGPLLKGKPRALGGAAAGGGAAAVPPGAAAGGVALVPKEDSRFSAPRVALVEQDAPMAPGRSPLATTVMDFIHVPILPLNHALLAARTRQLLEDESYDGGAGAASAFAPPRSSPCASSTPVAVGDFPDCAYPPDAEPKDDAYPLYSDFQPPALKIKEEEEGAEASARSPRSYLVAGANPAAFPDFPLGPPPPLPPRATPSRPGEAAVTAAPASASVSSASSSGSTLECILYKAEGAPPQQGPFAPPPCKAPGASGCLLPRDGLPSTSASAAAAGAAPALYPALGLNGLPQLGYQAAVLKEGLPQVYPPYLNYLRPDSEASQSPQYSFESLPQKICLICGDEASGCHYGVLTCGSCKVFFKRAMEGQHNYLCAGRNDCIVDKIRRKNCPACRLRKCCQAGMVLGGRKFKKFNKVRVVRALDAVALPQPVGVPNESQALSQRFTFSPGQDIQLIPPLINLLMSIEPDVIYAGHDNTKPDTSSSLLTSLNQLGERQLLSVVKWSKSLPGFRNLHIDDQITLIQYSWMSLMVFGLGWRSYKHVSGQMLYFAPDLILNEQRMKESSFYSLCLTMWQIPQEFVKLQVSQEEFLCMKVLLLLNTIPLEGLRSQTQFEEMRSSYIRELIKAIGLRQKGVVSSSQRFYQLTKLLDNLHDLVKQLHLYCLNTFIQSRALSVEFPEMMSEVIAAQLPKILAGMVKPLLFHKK
Description: Transactivation test on antagonistic activity on PR-B. The class given is cell-based. The protocol: (§1) The transactivation assay is carried out as described in WO 02/054064.

In a further experiment the target is T2, PR-A (Homo sapiens, UniProt P06401).
T2 construct: expressed in transfected cells
T2 sequence (P06401 1-769 isoform P06401-2): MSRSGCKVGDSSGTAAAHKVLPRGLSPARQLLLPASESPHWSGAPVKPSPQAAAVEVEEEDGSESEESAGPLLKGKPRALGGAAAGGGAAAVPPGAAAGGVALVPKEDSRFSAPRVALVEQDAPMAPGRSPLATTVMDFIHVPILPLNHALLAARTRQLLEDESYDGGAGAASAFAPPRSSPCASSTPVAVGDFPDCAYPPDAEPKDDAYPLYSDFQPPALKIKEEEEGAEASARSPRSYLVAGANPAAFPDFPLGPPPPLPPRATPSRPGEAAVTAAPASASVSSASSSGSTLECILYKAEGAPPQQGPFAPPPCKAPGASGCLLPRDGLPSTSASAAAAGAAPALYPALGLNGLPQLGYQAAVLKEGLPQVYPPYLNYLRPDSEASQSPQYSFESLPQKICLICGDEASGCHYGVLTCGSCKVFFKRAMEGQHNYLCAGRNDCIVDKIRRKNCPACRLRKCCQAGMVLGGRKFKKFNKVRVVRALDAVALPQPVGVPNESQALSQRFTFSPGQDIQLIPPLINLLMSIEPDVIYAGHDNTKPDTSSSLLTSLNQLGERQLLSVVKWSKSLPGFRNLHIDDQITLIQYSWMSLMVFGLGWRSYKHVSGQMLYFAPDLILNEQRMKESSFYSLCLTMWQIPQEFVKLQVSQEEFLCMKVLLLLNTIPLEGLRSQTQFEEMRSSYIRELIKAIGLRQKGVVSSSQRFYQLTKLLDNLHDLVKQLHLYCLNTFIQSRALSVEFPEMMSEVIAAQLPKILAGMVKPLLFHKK
Description: Transactivation test on antagonistic activity at PR-A. Conditions: for IC50: antagonism at PR-A; for Emax: read-out: Efficacy (antagonism at PR-A) [%]. The class given is cell-based. The protocol:
as §1

As for `N#Cc1ccc(NC(=O)C(O)(Cc2ccccc2)C2CCCCC2)cc1Cl` (racemic) [Example 3, rac-N-(3-Chloro-4-cyanophenyl)-2-hydroxy-2-cyclohexyl-3-phenylpropanamide], it took 0.0056 µM to reach half-maximal inhibition at PR-B (IC50). This lies in the single-digit nanomolar range.

With `CC(=O)c1ccc(-c2ccccc2CC(O)(C(=O)Nc2ccc(C#N)c(Cl)c2)C2CCCCC2)cc1` (single isomer, unassigned) [Example 19a, rac-3-(4′-Acetylbiphenyl-2-yl)-N-(3-chloro-4-cyanophenyl)-2-cyclohexyl-2-hydroxy-propionamide], at PR-A, the midpoint of inhibition, the IC50, lay at 0.00626 µM and the Emax amounted to 108%.

For `N#Cc1ccc(NC(=O)C(O)(Cc2ccccc2)C2CCN(C(=O)c3ccccc3)CC2)cc1C(F)(F)F` (single isomer, unassigned) [Example 101a, 2-(1-Benzoylpiperidin-4-yl)-N-(4-cyano-3-trifluoromethylphenyl)-2-hydroxy-3-phenylpropionamide], at PR-A, it took 0.0147 µM to reach half-maximal inhibition (IC50) and the Emax stood at 103%.

For `CS(=O)(=O)N1CCC(C(O)(Cc2ccccc2)C(=O)Nc2ccc(C#N)c(C(F)(F)F)c2)CC1` (single isomer, unassigned) [Example 103, N-(4-Cyano-3-trifluoromethylphenyl)-2-hydroxy-2-(1-methanesulfonyl-piperidin-4-yl)-3-phenylpropionamide], on PR-A, the IC50 was 0.0488 µM and the Emax was determined as 98.5%.

On to `N#Cc1ccc(NC(=O)C(O)(Cc2ccccc2)C2CCN(C(=O)C3CC3)CC2)cc1C(F)(F)F` (single isomer, unassigned) [Example 108, N-(4-Cyano-3-trifluoromethylphenyl)-2-(1-cyclopropanecarbonylpiperidin-4-yl)-2-hydroxy-3-phenylpropion amide], for which, at PR-A, half-maximal inhibition (IC50) was put at 0.0361 µM and the Emax was 96%.

In the case of `N#Cc1ccc(NC(=O)C(O)(Cc2ccccc2)C2CCN(S(=O)(=O)c3cccc(Cl)c3)CC2)cc1C(F)(F)F` (single isomer, unassigned) [Example 111, 2-[1-(3-Chlorobenzenesulfonyl)-piperidin-4-yl]-N-(4-cyano-3-trifluoro-methylphenyl)-2-hydroxy-3-phenyl-propionamide], on PR-A, the midpoint of inhibition, the IC50, lay at 0.00417 µM and the Emax stood at 103%.

Take `N#Cc1ccc(NC(=O)C(O)(Cc2ccccc2)C2CCN(C(=O)c3ccno3)CC2)cc1C(F)(F)F` (single isomer, unassigned) [Example 113, N-(4-Cyano-3-trifluoromethylphenyl)-2-hydroxy-2-[1-(isoxazole-5-carbonyl)piperidin-4-yl]-3-phenyl-propionamide]: at PR-A, the IC50 is 0.0217 µM and the Emax is 97.9%.

In the case of `CNC(=O)c1cccc(-c2cccc(CC(O)(C(=O)Nc3ccc(C#N)c(C(F)(F)F)c3)C3CCN(C(=O)c4ccccc4)CC3)c2)c1` (single isomer, unassigned) [Example 159, N-Methyl-3′-[2-(1-benzoylpiperidin-4-yl)-2-(4-cyano-3-trifluoromethylphenyl-carbamoyl)-2-hydroxyethyl]biphenyl-3-carboxamide], at PR-A, the IC50 was found to be 0.0159 µM and the Emax is 96.2%.

Regarding `N#Cc1ccc(NC(=O)C(O)(Cc2cccc(-c3cccc(C(N)=O)c3)c2)C2CCN(S(=O)(=O)c3ccc(F)cc3)CC2)cc1C(F)(F)F` (single isomer, unassigned) [Example 172, 3′-{2-(4-Cyano-3-trifluoromethyl-phenylcarbamoyl)-2-[1-(4-fluoro-benzenesulfonyl)piperidin-4-yl]-2-hydroxyethyl}biphenyl-3-carboxamide], at PR-A, the IC50 was 0.0012 µM and the Emax was found to be 101%.

For `N#Cc1ccc(NC(=O)C(O)(Cc2cccc(O)c2)C2CCCCC2)cc1C(F)(F)F` (single isomer, unassigned) [Example 200b, N-(4-Cyano-3-trifluoromethylphenyl)-2-cyclohexyl-2-hydroxy-3-(3-hydroxy-phenyl)propionamide], on PR-A, the IC50 came to 0.00566 µM and the Emax was determined as 98.5%.

As to `CNS(=O)(=O)c1ccc(-c2cccc(C[C@](O)(C(=O)Nc3ccc(C#N)c(C(F)(F)F)c3)C3CCCCC3)c2)cc1` (stereo in doubt) [Example 63, N-(4-Cyano-3-trifluoromethylphenyl)-2-cyclohexyl-2-hydroxy-3-(4′-methyl-sulfamoylbiphenyl-3-yl)propionamide], on PR-A, the IC50 is 0.0263 µM and the Emax is 104%.

Regarding `N#Cc1ccc(NC(=O)C(O)(Cc2cccc(-c3ccsc3)c2)C2CCCCC2)cc1C(F)(F)F` (stereo not shown) [Example 59, N-(4-Cyano-3-trifluoromethylphenyl)-2-cyclohexyl-2-hydroxy-3-(3-thiophen-3-ylphenyl)propionamide], at PR-A, inhibition was half-maximal at 0.0468 µM (IC50) and the Emax is 103%.

In the case of `CNC(=O)c1cccc(-c2cccc(CC(O)(C(=O)Nc3ccc(C#N)c(C(F)(F)F)c3)C3CCCCC3)c2)c1` (stereo not shown) [Example 68, N-Methyl-3′-[2-(4-cyano-3-trifluoro-methylphenylcarbamoyl)-2-cyclohexyl-2-hydroxyethyl]biphenyl-3-carboxamide], at PR-A, it took 0.00513 µM to reach half-maximal inhibition (IC50) and the Emax was determined as 102%.

Regarding `CC(=O)Nc1cccc(-c2cccc(CC(O)(C(=O)Nc3ccc(C#N)c(C(F)(F)F)c3)C3CCCCC3)c2)c1` (stereo not shown) [Example 71, 3-(3′-Acetylaminobiphenyl-3-yl)-N-(4-cyano-3-trifluoromethylphenyl)-2-cyclohexyl-2-hydroxypropionamide], at PR-A, the IC50 is 0.0173 µM and the Emax worked out at 100%.

For `N#Cc1ccc(NC(=O)C(O)(Cc2cccc(-c3ccc(C(=O)CO)cc3)c2)C2CCCCC2)cc1C(F)(F)F` (stereo not shown) [Example 78, N-(4-Cyano-3-trifluoromethylphenyl)-2-cyclohexyl-2-hydroxy-3-[4′-(2-hydroxy-acetyl)biphenyl-3-yl]propionamide], at PR-A, the IC50 came out at 0.0557 µM and the Emax came out at 101%.

As to `CS(=O)(=O)N1CCN(Cc2cccc(CC(O)(C(=O)Nc3ccc(C#N)c(C(F)(F)F)c3)C3CCCCC3)c2)CC1` (stereo not shown) [Example 84, N-(4-Cyano-3-trifluoromethylphenyl)-2-cyclohexyl-2-hydroxy-3-[3-(4-methane-sulfonylpiperazin-1-ylmethyl)phenyl]-propionamide], at PR-A, 0.0512 µM corresponded to half-maximal inhibition (IC50) and the Emax was determined as 102%.

With `Cn1c(C#N)ccc1NC(=O)C(O)(Cc1ccccc1)C1CCCCC1` (stereo not shown) [Example 97, N-(5-Cyano-1-methyl-1H-pyrrol-2-yl)-2-cyclohexyl-2-hydroxy-3-phenyl-propionamide], at PR-A, the IC50 is 0.0556 µM and the Emax came to 105%.

In the case of `N#Cc1ccc(NC(=O)C(O)(Cc2cccc(-c3cccc(C(=O)N4CCOCC4)c3)c2)C2CCN(C(=O)c3ccccc3)CC2)cc1C(F)(F)F` (stereo not shown) [Example 162, 2-(1-Benzoylpiperidin-4-yl)-N-(4-cyano-3-trifluoromethylphenyl)-2-hydroxy-3-[3′-(morpholine-4-carbonyl)-biphenyl-3-yl]propionamide], on PR-A, half-maximal inhibition (IC50) required 0.0441 µM and the Emax is 99%.

In the case of `CNC(=O)c1cccc(-c2cccc(CC(O)(C(=O)Nc3ccc(C#N)c(C(F)(F)F)c3)C3CCN(S(=O)(=O)c4cccc(F)c4)CC3)c2)c1` (stereo not shown) [Example 169, N-Methyl-3′-{2-(4-cyano-3-trifluoro-methylphenylcarbamoyl)-2-[1-(3-fluoro-benzenesulfonyl)-piperidin-4-yl]-2-hydroxyethyl}biphenyl-3-carboxamide], on PR-A, the IC50 stood at 0.0017 µM and the Emax turned out to be 103%.

As usually defined, the IC50 is the midpoint of a concentration-inhibition curve. Read a high IC50 as a need for much substance.
